Test results published in patent US20040082635A1, “Fused cyclic compounds and medicinal use thereof” (priority 2001, published 2004).
Structures can show the parent of a compound that is named as a salt.

What follows are molecules tested against T1, HCV polymerase (Hepatitis C virus genotype 1b, UniProt P26663) (assay: biochemical). Conditions: read-out: HCV polymerase inhibitory activity IC50.
T1 construct: a region encoding NS5B (591 amino acids; J Virol 1991 Mar, 65(3), 1105-13) was amplified by PCR; 6 His (N); made in house; host or cells: Escherichia coli
T1 sequence (P26663 2420-3010): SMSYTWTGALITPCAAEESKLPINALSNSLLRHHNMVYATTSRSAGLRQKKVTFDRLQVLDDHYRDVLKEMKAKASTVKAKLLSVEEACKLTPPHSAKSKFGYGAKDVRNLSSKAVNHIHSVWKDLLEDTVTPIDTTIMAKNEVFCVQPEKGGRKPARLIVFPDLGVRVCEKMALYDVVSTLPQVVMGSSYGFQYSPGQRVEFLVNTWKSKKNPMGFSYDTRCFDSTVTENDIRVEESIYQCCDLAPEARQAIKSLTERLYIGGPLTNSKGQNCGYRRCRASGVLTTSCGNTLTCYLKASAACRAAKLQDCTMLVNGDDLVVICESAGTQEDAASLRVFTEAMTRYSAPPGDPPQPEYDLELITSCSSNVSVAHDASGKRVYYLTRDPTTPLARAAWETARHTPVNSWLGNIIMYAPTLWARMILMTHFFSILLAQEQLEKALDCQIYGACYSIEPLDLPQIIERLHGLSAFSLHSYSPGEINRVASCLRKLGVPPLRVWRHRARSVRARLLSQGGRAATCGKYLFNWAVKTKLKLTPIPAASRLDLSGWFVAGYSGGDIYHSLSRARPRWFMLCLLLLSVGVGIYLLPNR

| SMILES | IC50 [nM] |
| --- | --- |
| O=C(O)c1ccc2c(c1)nc(-c1ccc(OCc3cc(C(=O)N4CCCC4)ccc3-c3ccc(Cl)cc3)cc1F)n2C1CCCCC1 [Example 287, 2-{4-[2-(4-chlorophenyl)-5-(1-pyrrolidinyl)carbonylbenzyloxy]-2-fluorophenyl}-1-cyclohexylbenzimidazole-5-carboxylic acid] | 12 |
| O=C(O)c1ccc2c(c1)nc(-c1ccc(OCc3cc(C(=O)NCCO)ccc3-c3ccc(Cl)cc3)cc1F)n2C1CCCCC1 [Example 288, 2-{4-[2-(4-chlorophenyl)-5-(2-hydroxyethyl)carbamoylbenzyloxy]-2-fluorophenyl}-1-cyclohexylbenzimidazole-5-carboxylic acid] | 13 |
| O=C(O)c1ccc2c(c1)nc(-c1ccc(OCc3cc(C(=O)N4CCC(O)CC4)ccc3-c3ccc(Cl)cc3)cc1F)n2C1CCCCC1 [Example 289, 2-{4-[2-(4-chlorophenyl)-5-(4-hydroxypiperidino)-carbonylbenzyloxy]-2-fluorophenyl}-1-cyclohexylbenzimidazole-5-carboxylic acid] | < 10 |
| O=C(O)c1ccc2c(c1)nc(-c1ccc(OCc3cc(C(=O)N4CCOCC4)ccc3-c3ccc(Cl)cc3)cc1F)n2C1CCCCC1 [Example 290, 2-{4-[2-(4-chlorophenyl)-5-morpholinocarbonylbenzyloxy]-2-fluorophenyl}-1-cyclohexylbenzimidazole-5-carboxylic acid] | 12 |
| O=C(O)c1ccc2c(c1)nc(-c1ccc(OCc3cc(C(=O)N4CCSCC4)ccc3-c3ccc(Cl)cc3)cc1F)n2C1CCCCC1 [Example 291, 2-{4-[2-(4-chlorophenyl)-5-thiomorpholinocarbonylbenzyloxy]-2-fluorophenyl}-1-cyclohexylbenzimidazole-5-carboxylic acid] | 16 |
| O=C(O)CNC(=O)c1ccc(-c2ccc(Cl)cc2)c(COc2ccc(-c3nc4cc(C(=O)O)ccc4n3C3CCCCC3)c(F)c2)c1 [Example 292, 2-{4-[3-(carboxymethylcarbamoyl)-6-(4-chlorophenyl)benzyloxy]-2-fluorophenyl}-1-cyclohexylbenzimidazole-5-carboxylic acid] | 15 |
| O=C(O)CCc1ccc(-c2ccc(Cl)cc2COc2ccc(-c3nc4cc(C(=O)O)ccc4n3C3CCCCC3)cc2)cc1 [Example 293, 2-{4-[2-{4-(2-carboxyethyl)phenyl}-5-chlorobenzyloxy]phenyl}-1-cyclohexylbenzimidazole-5-carboxylic acid] | 34 |
| O=C(O)c1ccc2c(c1)nc(-c1ccc(OCc3cc(Cl)ccc3-c3ccc(CO)cc3)cc1)n2C1CCCCC1 [Example 294, 2-{4-[3-chloro-6-(4-hydroxymethylphenyl)benzyloxy]phenyl}-1-cyclohexylbenzimidazole-5-carboxylic acid] | 32 |
| COCc1ccc(-c2ccc(Cl)cc2COc2ccc(-c3nc4cc(C(=O)O)ccc4n3C3CCCCC3)cc2)cc1 [Example 295, 2-{4-[3-chloro-6-(4-methoxymethylphenyl)benzyloxy]phenyl}-1-cyclohexylbenzimidazole-5-carboxylic acid] | 45 |
| O=C(O)c1cccc(-c2ccc(Cl)cc2COc2ccc(-c3nc4cc(C(=O)O)ccc4n3C3CCCCC3)cc2)c1 [Example 296, 2-{4-[2-(3-carboxyphenyl)-5-chlorobenzyloxy]phenyl}-1-cyclohexylbenzimidazole-5-carboxylic acid] | 34 |
| CSc1ccc(-c2ccc(Cl)cc2)c(COc2ccc(-c3nc4cc(C(=O)O)ccc4n3C3CCCCC3)cc2)c1 [Example 297, 2-{4-[2-(4-chlorophenyl)-5-methylthiobenzyloxy]phenyl}-1-cyclohexylbenzimidazole-5-carboxylic acid] | 22 |
| C[S+]([O-])c1ccc(-c2ccc(Cl)cc2)c(COc2ccc(-c3nc4cc(C(=O)O)ccc4n3C3CCCCC3)cc2)c1 (centres unmarked) [Example 298, 2-{4-[2-(4-chlorophenyl)-5-methylsulfinylbenzyloxy]phenyl}-1-cyclohexylbenzimidazole-5-carboxylic acid] | 11 |
| N#Cc1ccc(-c2ccc(Cl)cc2)c(COc2ccc(-c3nc4cc(C(=O)O)ccc4n3C3CCCCC3)cc2)c1 [Example 299, 2-{4-[2-(4-chlorophenyl)-5-cyanobenzyloxy]phenyl}-1-cyclohexyl-benzimidazole-5-carboxylic acid] | 18 |
| CN(C)C(=O)c1ccc(C(Oc2ccc(-c3nc4cc(C(=O)O)ccc4n3C3CCCCC3)c(F)c2)c2ccc(C(=O)N(C)C)cc2)cc1 [Example 301] | 17 |
| COC(=O)c1ccc2c(c1)nc(-c1ccc(OCc3cc(C(=O)N(C)C)ccc3-c3ccc(Cl)cc3)cc1F)n2C1CCCCC1 [Example 303, methyl 2-{4-[2-(4-chlorophenyl)-5-(dimethylcarbamoyl)benzyloxy]-2-fluorophenyl}-1-cyclohexylbenzimidazole-5-carboxylate] | 100 |
| O=C(O)c1ccc(-c2ccc(Cl)cc2)c(COc2ccc(-c3nc4cc(C(=O)O)ccc4n3C3CCCCC3)c(F)c2)c1 [Example 305, 2-{4-[5-carboxy-2-(4-chlorophenyl)benzyloxy]-2-fluorophenyl}-1-cyclohexylbenzimidazole-5-carboxylic acid] | 10 |
| COc1ccc(-c2ccc(C(=O)O)cc2)c(COc2ccc(-c3nc4cc(C(=O)O)ccc4n3C3CCCCC3)cc2)c1 [Example 306, 2-{4-[2-(4-carboxyphenyl)-5-methoxybenzyloxy]phenyl}-1-cyclohexylbenzimidazole-5-carboxylic acid] | 13 |
| CN(C)C(=O)c1ccc(-c2ccc(C(N)=O)cc2)c(COc2ccc(-c3nc4cc(C(=O)O)ccc4n3C3CCCCC3)cc2)c1 [Example 307, 2-{4-[2-(4-carbamoylphenyl)-5-(dimethylcarbamoyl)benzyloxy]-phenyl}-1-cyclohexylbenzimidazole-5-carboxylic acid] | 22 |
| Nc1ccc(-c2ccc(Cl)cc2)c(COc2ccc(-c3nc4cc(C(=O)O)ccc4n3C3CCCCC3)cc2)c1 [Example 308, 2-{4-[5-amino-2-(4-chlorophenyl)benzyloxy]phenyl}-1-cyclohexylbenzimidazole-5-carboxylic acid] | 23 |
| O=C(O)c1ccc(C(Oc2ccc(-c3nc4cc(C(=O)O)ccc4n3C3CCCCC3)c(F)c2)c2ccc(C(=O)O)cc2)cc1 [Example 312, 2-{4-[bis(4-carboxyphenyl)methoxy]-2-fluorophenyl}-1-cyclohexylbenzimidazole-5-carboxylic acid] | 23 |
| CNC(=O)c1ccc(-c2ccc(Cl)cc2)c(COc2ccc(-c3nc4cc(C(=O)OC)ccc4n3C3CCCCC3)c(F)c2)c1 [Example 314, methyl 2-{4-[2-(4-chlorophenyl)-5-(methylcarbamoyl)benzyloxy]-2-fluorophenyl}-1-cyclohexylbenzimidazole-5-carboxylate] | 97 |
| O=C(O)c1ccc2c(c1)nc(-c1ccc(OCc3cc(Cl)ccc3-c3ccncc3)cc1)n2C1CCCCC1 [Example 315, 2-{4-[5-chloro-2-(4-pyridyl)benzyloxy]phenyl}-1-cyclohexylbenzimidazole-5-carboxylic acid hydrochloride] | 28 |
| O=C(O)c1ccc2c(c1)nc(-c1ccc(OCc3cc(C(=O)NCc4ccccc4)ccc3-c3ccc(Cl)cc3)cc1)n2C1CCCCC1 [Example 316, 2-{4-[2-(4-chlorophenyl)-5-(benzylcarbamoyl)benzyloxy]phenyl}-1-cyclohexylbenzimidazole-5-carboxylic acid hydrochloride] | 22 |
